Reference: US11197904B2, “Pharmaceutical compositions for preventions and managements of dementia, infectious diseases, cancers, periodontitis, dental caries, diabetes, obesity, osteoporosis and chronic pain and methods thereof” (Chung Shan Medical University, priority 2018, dated 2021)
Converted amounts (≈) assume the structure as drawn. Like-named read-outs stand apart in the source and are kept apart here. Marks after values point to notes of the source that are not given here.

Legend:
[1] = test system: Porphyromonas gingivalis (P.g.); experiment: microbe, parasite or virus in culture; settings: read-out: IC50, 50% inhibition on bacterial proliferation, P. g.
[2] = test system: Streptococcus mutans (S.m., UA159); experiment: microbe, parasite or virus in culture; settings: read-out: IC50, 50% inhibition on bacterial proliferation, UA159
[3] = test system: Pseudomonas aeruginosa (P.a.); experiment: microbe, parasite or virus in culture; settings: read-out: IC50, 50% inhibition on bacterial proliferation, P. a.
[4] = test system: Staphylococcus aureus (S.a); experiment: microbe, parasite or virus in culture; settings: read-out: IC50, 50% inhibition on bacterial proliferation, S. a.
[5] = test system: Lactobacillus reuteri (L.r.); experiment: Proliferation of the probiotic Lactobacillus reuteri (OD600); format: cell-based
[6] = test system: Porphyromonas gingivalis (P.g.)
[7] = test system: Streptococcus mutans (S.m., UA159)
[8] = test system: Pseudomonas aeruginosa (P.a.)
[9] = test system: Staphylococcus aureus (S.a)
[10] = 3 to 10 times higher than the listed IC50, Table 1
[11] = read-out: IC50, P. g., metals alone
[12] = read-out: IC50, UA159, metals alone
[13] = read-out: IC50, P. a., metals alone
[14] = read-out: IC50, S. a., metals alone
[15] = 3 to 10 times higher IC50, Table 2

Row | Structure (SMILES) | IC50 [1] [µg/mL] | IC50 [2] [µg/mL] | IC50 [3] [µg/mL] | IC50 [4] [µg/mL] | also measured
1 | O[C@H](CS)[C@H](O)CS (racemic) [Dithiothreitol] | > 300 | > 300 | > 300 | > 300 | –
2 | CCCCCCc1ccc(O)cc1O [4-Hexyl-Resorcinol] | 20 (≈ 103 µM) | 15 (≈ 77.2 µM) | > 100 | 32 (≈ 165 µM) | –
3 | [Cl][Ag] [AgCl] | – | – | – | – | Inhibition on proliferation of Lactobacillus reuteri [5, 10]: AgCl*; IC50 [6, 11]: 14 µM; IC50 ([6]; read-out: IC50 of single drug, Table 14, P. g., drug alone): 14 µM; IC50 [7, 12]: 35 µM; IC50 ([7]; read-out: IC50 of single drug, Table 14, UA159, drug alone): 35 µM; IC50 [8, 13]: 44 µM; IC50 ([8]; read-out: IC50 of single drug, Table 14, P. a., drug alone): 42 µM; IC50 [9, 14]: 28 µM; IC50 ([9]; read-out: IC50 of single drug, Table 14, S. a., drug alone): 56 µM
4 | N=C(N)NCCC[C@H](N)C(=O)N[C@@H](Cc1ccccc1)C(=O)O [ArgPhe] | – | – | – | – | IC50, 50% inhibition on bacterial proliferation, P. g. [6]: >100 µg/mL; IC50, 50% inhibition on bacterial proliferation, UA159 ([7]; S.m., UA159): >100 µg/mL; IC50, 50% inhibition on bacterial proliferation, P. a. ([8]; P.a., 16 h): >100 µg/mL; IC50, 50% inhibition on bacterial proliferation, S. a. ([9]; S.a, 16 h): >100 µg/mL
5 | COc1ccc2cc3[n+](cc2c1OC)CCc1cc2c(cc1-3)OCO2 [Berberine] | > 100 | 25 | > 100 | > 100 | –
6 | CN(C)CCCN1c2ccccc2Sc2ccc(Cl)cc21 [Chlorpromazine] | 5 (≈ 15.7 µM) | 7 (≈ 22 µM) | 149 (≈ 467 µM) | 12 (≈ 37.6 µM) | Inhibition on proliferation of Lactobacillus reuteri [5, 15]: CPZ, Chlorpromazine*
7 | [Cl][Cu][Cl] [CuCl2] | – | – | – | – | IC50 [6, 11]: 673 µM; IC50 [7, 12]: 448 µM; IC50 [8, 13]: 1690 µM; IC50 [9, 14]: > 2000 µM
8 | COc1cc(/C=C/C(=O)CC(=O)/C=C/c2ccc(O)c(OC)c2)ccc1O [Curcumin] | 126 (≈ 342 µM) | 42 (≈ 114 µM) | 302 (≈ 820 µM) | < 1000 | Inhibition on proliferation of Lactobacillus reuteri [5, 10]: C*, Curcumin
9 | Cc1cc(N)c2ccccc2[n+]1CCCCCCCCCC[n+]1c(C)cc(N)c2ccccc21 [Dequalinium] | 3 | 1 | > 10 | 2 | –
10 | C[C@@H]1CC[C@@]2(OC1)O[C@H]1[C@@H](O)[C@H]3[C@@H]4CC[C@H]5C[C@@H](O[C@@H]6O[C@H](CO)[C@H](O[C@@H]7O[C@H](CO)[C@@H](O)[C@H](O[C@@H]8OC[C@@H](O)[C@H](O)[C@H]8O)[C@H]7O[C@@H]7O[C@H](CO)[C@H](O)[C@H](O[C@@H]8O[C@H](CO)[C@@H](O)[C@H](O)[C@H]8O)[C@H]7O)[C@H](O)[C@H]6O)[C@H](O)C[C@]5(C)[C@H]4CC[C@]3(C)[C@H]1[C@@H]2C [Digitonin] | 123 (≈ 100 µM) | > 300 | > 300 | > 300 | –
11 | COc1ccc([C@@H]2Sc3ccccc3N(CCN(C)C)C(=O)[C@@H]2OC(C)=O)cc1 [Diltiagem] | – | – | – | – | IC50, 50% inhibition on bacterial proliferation, P. g. ([6]; single agent): 104 µg/mL (≈ 251 µM); IC50, 50% inhibition on bacterial proliferation, UA159 ([7]; single agent): >300 µg/mL; IC50, 50% inhibition on bacterial proliferation, P. a. ([8]; single agent): >300 µg/mL; IC50, 50% inhibition on bacterial proliferation, S. a. ([9]; single agent): >300 µg/mL
12 | O=C(O[C@@H]1Cc2c(O)cc(O)cc2O[C@@H]1c1cc(O)c(O)c(O)c1)c1cc(O)c(O)c(O)c1 [EGCG] | – | – | – | – | IC50, 50% inhibition on bacterial proliferation, P. g. ([6]; single agent): 83 µg/mL (≈ 181 µM); IC50, 50% inhibition on bacterial proliferation, UA159 ([7]; single agent): 137 µg/mL (≈ 299 µM); IC50, 50% inhibition on bacterial proliferation, P. a. ([8]; single agent): 173 µg/mL (≈ 377 µM); IC50, 50% inhibition on bacterial proliferation, S. a. ([9]; single agent): 142 µg/mL (≈ 310 µM)
13 | CC(O)(P(=O)(O)O)P(=O)(O)O [Etidronate] | 46 (≈ 223 µM) | 597 (≈ 2900 µM) | > 1000 | 350 (≈ 1700 µM) | –
14 | NNC(=O)c1ccncc1 [Isoniazid] | > 300 | > 300 | > 300 | > 300 | –
15 | CC12CC3CC(C)(C1)CC(N)(C3)C2 [Memantine] | 59 (≈ 329 µM) | 386 (≈ 2150 µM) | 321 (≈ 1790 µM) | 435 (≈ 2430 µM) | –
16 | CN(C)C(=N)N=C(N)N [Metformin] | 639 (≈ 4950 µM) | > 1000 | > 1000 | > 1000 | Inhibition on proliferation of Lactobacillus reuteri [5, 15]: MF, Metformin*
17 | [Cl][Mn][Cl] [MnCl2] | – | – | – | – | Inhibition on proliferation of Lactobacillus reuteri [5, 10]: MnCl2*; IC50 [6, 11]: 990 µM; IC50 [7, 12]: 1440 µM; IC50 [8, 13]: > 2000 µM; IC50 [9, 14]: 2740 µM
18 | [Na+].[Na+].[Na+].[O]=[V]([O-])([O-])[O-] [Na3VO4] | – | – | – | – | IC50 [6, 11]: 217 µM; IC50 [7, 12]: 866 µM; IC50 [8, 13]: > 2000 µM; IC50 [9, 14]: > 2000 µM
